Data on two compounds can be found in patent US20260234115A1, “LIPID COMPOUNDS, COMPOSITIONS, AND USES THEREOF” (Liberate Bio, Inc., priority 2023, published 2026).

The test system of data set [1] is mouse organs. Description: In vivo activity screening in mice: organ mean total flux (p/s) of luciferase activity after injection of F2 LNP pools (Table 6, FIG. 7A-7C). The following applies: Mouse 9, dose 0.5 mg/kg, luciferase mRNA. An outline of the steps: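 C57BL/6J mice given one tail-vein injection of pooled Formulation F2 LNPs carrying firefly luciferase mRNA (0.25-3 mg/kg) in PBS. At 4-6 h, s.c. D-luciferin given; organs imaged ex vivo by IVIS within 10-15 min, after saline cardiac perfusion. Mean total flux (p/s) per organ ROI.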

Data set [2] relates to NHP organs. Description: In vivo activity screening in non-human primates: mean normalized UMI counts of barcoded mRNA in tissues after IV infusion of pooled F2 LNPs (Table 7, FIG. 8-11). Details: species or system cynomolgus monkeys (Macaca fascicularis). As to the method: Non-human primate (NIIP) biodistribution studies were performed in cynomolgus monkeys (e.g., Macaca fascicularis), aged 4-6 years. Animals were premedicated with dexamethasone, famotidine and diphenhydramine (at 1, 0.5 and 5 mg/kg, respectively) −2 and −1 day prior to test material dosing. LNP formulations (prepared in Formulation F2 from Example 1) were prepared with ionizable lipids so that each LNP formulation encapsulates one or more mRNAs with predetermined unique barcode sequences as their cargo. LNPs in PBS, identified by their unique barcoded mRNA cargo, are then pooled together at predetermined ratios. To evaluate LNP biodistribution into tissues upon systemic administration, NHPs received the dose administration by single intravenous infusion via peripheral vein (cephalic, saphenous, or another available) for 30 minutes with LNP dosing material (individual or pooled) in PBS at different total dose (0.5-1 mg/kg) levels.
At predetermined time points (4-6 hours after pooled test material administration), animals were sacrificed by exsanguination via the femoral artery after the intravenous injection of ketamine (10 mg/kg) and Euthasol® (0.25 mL/kg). Then, all animals underwent whole-body perfusion with PBS prior to tissue collection. 20-25 mg samples for biodistribution analysis were collected from all treatment group animals and then placed in sample tubes containing RNALater™ solution. All tissue samples were stored at room temperature for 24 hours, then the supernatants were removed, and samples were frozen.
To determine the unique LNPs distributed in the tissues, samples were homogenized by a tissue homogenizer (e.g., TissueLyser). Total RNA from the tissue homogenates were extracted by standard methods. Then, normalized amounts of RNA were sequenced using a targeted RNA sequencing approach with unique molecular identifiers (UMI) to ensure accurate RNA molecule counting. For each tissue, the resulting RNA molecule counts were normalized by pooled test article RNA counts. The results were analyzed using the internal bioinformatics pipeline.
LNPs comprising MC3 used as a control and for cross-mouse comparison. Dose is in mg/kg; LC is Lipid Compound according to Table 1.
Screening results for NHP Group 1 (spleen, femur, and muscle) are shown in FIG. 8A, FIG. 8B, and FIG. 8C.

Marks after values point to notes of the source that are not given here.

As for `CCCCC/C=C\CCOC(=O)CCCCC(=O)OCC(COC(=O)CCCCC(=O)OCC/C=C\CCCCC)(COC(=O)CCC(CCCCCC)OC(=O)C12CCN(CC1)CC2)COC(=O)CC12CC3CC(CC(C3)C1)C2` (stereo not shown) [Compound 62, O6-[2-[[2-(1-adamantyl)acetyl]oxymethyl]-2-[[6-[(Z)-non-3-enoxy]-6-oxo-hexanoyl]oxymethyl]-3-[4-(quinuclidine-4-carbonyloxy)decanoyloxy]propyl]O1-[(Z)-non-3-enyl]hexanedioate], in data set [1], the “Organ Mean Total Flux Femur” value was 0.6 p/s (×10^6), the “Organ Mean Total Flux Heart” value is 0.1 p/s (×10^6), the “Organ Mean Total Flux Kidney” value was 0.3 p/s (×10^6) and the “Organ Mean Total Flux Liver” value is listed as 38.0 p/s (×10^6). In data set [1], the “Organ Mean Total Flux Lung” value was 2.5 p/s (×10^6), the “Organ Mean Total Flux Muscle” value was 1.4 p/s (×10^6), the “Organ Mean Total Flux Pancreas” value was 0.5 p/s (×10^6) and the “Organ Mean Total Flux Spleen” value is recorded as 3.3 p/s (×10^6). For the same compound, in data set [2] (NHP 2, bone marrow, pooled F2 LNPs, IV infusion, 4-6 hours), the “Mean normalized UMI counts (×10^4) Bone Marrow” value was 19.0 ×10^4. Besides, the “Mean normalized UMI counts (×10^4) Brain” value in data set [2] (NHP 2, brain, pooled F2 LNPs, IV infusion, 4-6 hours) is 3.8 ×10^4. Also, the “Mean normalized UMI counts (×10^4) Heart” value in data set [2] (NHP 2, heart, pooled F2 LNPs, IV infusion, 4-6 hours) is 87.0 ×10^4. In addition, the “Mean normalized UMI counts (×10^4) Kidney” value in data set [2] (NHP 2, kidney, pooled F2 LNPs, IV infusion, 4-6 hours) is given as 21.9 ×10^4. In data set [2] (NHP 2, liver, pooled F2 LNPs, IV infusion, 4-6 hours), the “Mean normalized UMI counts (×10^4) Liver” value was 27.4 ×10^4. Besides, the “Mean normalized UMI counts (×10^4) Lung” value in data set [2] (NHP 2, lung, pooled F2 LNPs, IV infusion, 4-6 hours) is 21.8 ×10^4. Besides, the “Mean normalized UMI counts (×10^4) Muscle” value in data set [2] (NHP 2, muscle, pooled F2 LNPs, IV infusion, 4-6 hours) is recorded as 43.9 ×10^4. In addition, in data set [2] (NHP 2, pancreas, pooled F2 LNPs, IV infusion, 4-6 hours), the “Mean normalized UMI counts (×10^4) Pancreas” value is 8.1 ×10^4. Besides, in data set [2] (NHP 2, spleen, pooled F2 LNPs, IV infusion, 4-6 hours), the “Mean normalized UMI counts (×10^4) Spleen” value is recorded as 29.8 ×10^4.

For the compound `CCCCC/C=C\CCOC(=O)CCCCC(=O)OCC(COC(=O)CCCCC(=O)OCC/C=C\CCCCC)(COC(=O)CCC(CCCCCC)OC(=O)NCCN1CCCC1)COC(=O)C12CC3CC(CC(C3)C1)C2` (stereo not shown) [Compound 63, O6-[2-(adamantane-1-carbonyloxymethyl)-2-[[6-[(Z)-non-3-enoxy]-6-oxo-hexanoyl]oxymethyl]-3-[4-(2-pyrrolidin-1-ylethylcarbamoyloxy)decanoyloxy]propyl]O1-[(Z)-non-3-enyl]hexanedioate], in data set [1], the “Organ Mean Total Flux Femur” value is given as 10.4 p/s (×10^6), the “Organ Mean Total Flux Heart” value is listed as 1.9 p/s (×10^6), the “Organ Mean Total Flux Kidney” value is reported as 2.4 p/s (×10^6) and the “Organ Mean Total Flux Liver” value is given as 351.7 p/s (×10^6). Moreover, in data set [1], the “Organ Mean Total Flux Lung” value is 37.3 p/s (×10^6), the “Organ Mean Total Flux Muscle” value was 37.4 p/s (×10^6), the “Organ Mean Total Flux Pancreas” value was 15.8 p/s (×10^6) and the “Organ Mean Total Flux Spleen” value is 40.7 p/s (×10^6). For the same compound, in data set [2] (cynomolgus monkey, in vivo, iv), the “Mean normalized UMI counts (×10^4) Bone Marrow” value is recorded as 233.0 ×10^4, the “Mean normalized UMI counts (×10^4) Brain” value was 72.8 ×10^4, the “Mean normalized UMI counts (×10^4) Heart” value is 115.8 ×10^4 and the “Mean normalized UMI counts (×10^4) Kidney” value is 153.6 ×10^4. Also, in data set [2] (cynomolgus monkey, in vivo, iv), the “Mean normalized UMI counts (×10^4) Liver” value is listed as 108.2 ×10^4, the “Mean normalized UMI counts (×10^4) Lung” value is listed as 139.5 ×10^4, the “Mean normalized UMI counts (×10^4) Muscle” value is 142.7 ×10^4 and the “Mean normalized UMI counts (×10^4) Pancreas” value is 89.4 ×10^4. Also, the “Mean normalized UMI counts (×10^4) Spleen” value in data set [2] (cynomolgus monkey, in vivo, iv) was 207.6 ×10^4.
